Measurements reported in patent EP0524718A1, “Polyurethane hydrogel compositions for iontophoretic drug delivery” (GENSIA PHARMACEUTICALS, INC., priority 1991, dated 1993).

Assay: Drug stability in hydrogel matrix electrode pads (isocratic HPLC assay)
Type: physicochemical
Details: in Hypol Hydrogel matrix, room temperature and 4°C, after six months
Description: Stability of Arbutamine in electrode pads using the hydrogel matrix prepared from Hypol Hydrogel prepolymer was studied using the 3M Red Dot™ Electrode Construction. […] The matrix incorporating the drug was placed in the 3M Red Dot electrode (after removing the gel supplied with the electrode). The electrode was secured in an aluminum pouch with or without a nitrogen flush (as noted). Drug stability studies were carried out at room temperature and 4°C.

Cl.Oc1ccc(CCCCNCC(O)c2ccc(O)c(O)c2)cc1 (stereo not shown) [Arbutamine, 1-(3,4-dihydroxyphenyl)-2-(4-(4-hydroxyphenyl)butylamino)ethanol hydrochloride]
drug degradation: no significant drug degradation
